According to patent publication US20240252650A1, “LIPID COMPOUNDS AND LIPID NANOPARTICLE COMPOSITIONS” (SUZHOU ABOGEN BIOSCIENCES CO., LTD., priority 2021, published 2024):

Legend:
female Balb/c mice = test: Animal study: LNPs encapsulating luciferase mRNA, tail vein injection, organ bioluminescence imaging (IVIS Spectrum CT); type: in vivo; details: luciferase mRNA LNP, 0.25 mg/kg tail vein; for bone marrow* Avg Radiance: bone marrow at 6 h; for brain* Avg Radiance: dissected brain at 6 h; for heart* Avg Radiance: dissected heart at 6 h; for kidney* Avg Radiance: dissected kidney at 6 h; for liver* Avg Radiance: dissected liver at 6 h; for lung* Avg Radiance: dissected lung at 6 h; for spleen* Avg Radiance: dissected spleen at 6 h; for luciferase expression in bone marrow (in words): 6 h
Experimental: Lipid nanoparticles comprising certain compounds provided herein encapsulating luciferase encoding (luciferase) mRNA were systemically administered to 6-8 week old female Balb/c mice (Charles River Lab, ZheJiang) at 0.25 mg/kg dose by tail vein injection, and mice blood were sampled at specific time points (e.g., 6 hours) post administration. Optical imaging was performed using the IVIS Spectrum CT device (PerkinElmer Inc., Paris, France). The luminescence level was evaluated by an ROI applied to the injection site zone (Living Image software, PerkinElmer Inc., Paris, France).
Radiance of heart, liver, spleen, lung, kidney, brain and bone marrow were taken at 6 h. Dissected organs were placed on a black sheet and imaged with IVIS Spectrum CT (PerkinElmer, Hopkinton, MA). To quantify bioluminescence emission signal, identical regions of interest (ROI) were positioned to encircle each organ region, the imaging signal was quantitated as average radiance (photons/s/cm2/steradian).

[1] = Encapsulation efficiency of lipid nanoparticles (Quant-it Ribogreen RNA quantification assay); type: physicochemical; details: LNP: cationic lipid/DSPC/cholesterol/PEG-lipid 50:10:38.5:1.5, mRNA; table of Example 15
Experimental: (§1) Briefly, a cationic lipid provided herein, DSPC, cholesterol, and PEG-lipid were solubilized in ethanol at a molar ratio of 50:10:38.5:1.5, and mRNA were diluted in 10 to 50 mM citrate buffer, pH=4. The LNPs were prepared at a total lipid to mRNA weight ratio of approximately 10:1 to 30:1 by mixing the ethanolic lipid solution with the aqueous mRNA solution at a volume ratio of 1:3 using a microfluidic apparatus, total flow rate ranging from 9-30 mL/min. Ethanol were thereby removed and replaced by DPBS using dialysis. Finally, the lipid nanoparticles were filtered through a 0.2 μm sterile filter.
(§2) Lipid nanoparticle size were determined by dynamic light scattering using a Malvern Zetasizer Nano ZS (Malvern UK) using a 173° backscatter detection mode. The encapsulation efficiency of lipid nanoparticles were determined using a Quant-it Ribogreen RNA quantification assay kit (Thermo Fisher Scientific, UK) according to the manufacturer's instructions.

[2] = Lipid nanoparticle size and polydispersity by dynamic light scattering (Malvern Zetasizer Nano ZS); type: physicochemical; details: LNP: cationic lipid/DSPC/cholesterol/PEG-lipid 50:10:38.5:1.5, mRNA; table of Example 15
Experimental: as §1, §2

[3] = Apparent pKa of LNP formulations by TNS fluorescence assay; type: physicochemical; details: LNP cationic lipid/DSPC/cholesterol/DMG-PEG 50/10/38.5/1.5 mol %, table of Example 15
Experimental: As reported in literature, the apparent pKa of LNP formulations correlates with the delivery efficiency of LNPs for nucleic acids in vivo. The apparent pKa of each formulation was determined using an assay based on fluorescence of 2-(p-toluidino)-6-napthalene sulfonic acid (TNS). LNP formulations comprising of cationic lipid/DSPC/cholesterol/DMG-PEG (50/10/38.5/1.5 mol %) in PBS were prepared as described above. TNS was prepared as a 300 uM stock solution in distilled water. LNP formulations were diluted to 0.1 mg/ml total lipid in 3 mL of buffered solutions containing 50 mM sodium citrate, 50 mM sodium phosphate, 50 mM sodium borate, and 30 mM sodium chloride where the pH ranged from 3 to 9. An aliquot of the TNS solution was added to give a final concentration of 0.1 mg/ml and following vortex mixing fluorescence intensity was measured at room temperature in a Molecular Devices Spectramax iD3 spectrometer using excitation and mission wavelengths of 325 nm and 435 nm. A sigmoidal best fit analysis was applied to the fluorescence data and the pKa value was measured as the pH giving rise to half-maximal fluorescent intensity.

With `CCCCC/C=C\C/C=C\CCCCCCCC(=O)OCC(COC(=O)CCCCN(CCO)C1CCC1)COC(=O)CCC(OCCCCCCCC)OCCCCCCCC` (stereo not drawn) [Compound 116] the “bone marrow* Avg Radiance” value (female Balb/c mice) was −0.16 E+04 p/s/cm^2/sr, the “brain* Avg Radiance” value (female Balb/c mice) was 13.52 E+04 p/s/cm^2/sr and the “heart* Avg Radiance” value (female Balb/c mice) was 12.65 E+04 p/s/cm^2/sr. For the same molecule, the “kidney* Avg Radiance” value (female Balb/c mice) was 28.62 E+04 p/s/cm^2/sr, the “liver* Avg Radiance” value (female Balb/c mice) was 40.56 E+06 p/s/cm^2/sr and the “lung* Avg Radiance” value (female Balb/c mice) was 17.29 E+04 p/s/cm^2/sr. For the same molecule, the “spleen* Avg Radiance” value (female Balb/c mice) was 1.38 E+06 p/s/cm^2/sr, the “Encapsulation Efficiency” value [1] was 92.40% and the polydispersity [2] was 0.049. For the same molecule, the “size (nm)” value [2] was 78.48 nm and the “Apparant Pka” value [3] was 6.881.

For `CCCCC/C=C\C/C=C\CCCCCCCC(=O)OCC(COC(=O)CCCCCCC/C=C\C/C=C\CCCCC)COC(=O)CCCCCCCN(CCO)C1CCC1` [Compound 124], the “luciferase expression in bone marrow (in words)” value (from here on “luciferase expression”) (female Balb/c mice) was “mild expression”, the “bone marrow* Avg Radiance” value (female Balb/c mice) was 2.2 E+04 p/s/cm^2/sr and the “brain* Avg Radiance” value (female Balb/c mice) was 16.34 E+04 p/s/cm^2/sr. For the same molecule, the “heart* Avg Radiance” value (female Balb/c mice) was 32.73 E+04 p/s/cm^2/sr, the “kidney* Avg Radiance” value (female Balb/c mice) was 34.36 E+04 p/s/cm^2/sr and the “liver* Avg Radiance” value (female Balb/c mice) was 47.09 E+06 p/s/cm^2/sr. The “lung* Avg Radiance” value (female Balb/c mice) was 16.04 E+04 p/s/cm^2/sr, the “spleen* Avg Radiance” value (female Balb/c mice) was 11.21 E+06 p/s/cm^2/sr and the “Encapsulation Efficiency” value [1] was 90.85%. The polydispersity [2] was 0.078, the “size (nm)” value [2] was 90.89 nm and the “Apparant Pka” value [3] was 7.1.

For `CCCCC/C=C\C/C=C\CCCCCCCC(=O)OCC(COC(=O)CCCCN(CCOCCO)C1CCC1)COC(=O)CCCC(COC(=O)CCCCCCC)COC(=O)CCCCCCC` (stereo not drawn) [Compound 125], the “bone marrow* Avg Radiance” value (female Balb/c mice) was −0.94 E+04 p/s/cm^2/sr, the “brain* Avg Radiance” value (female Balb/c mice) was 4.61 E+04 p/s/cm^2/sr and the “heart* Avg Radiance” value (female Balb/c mice) was 5.27 E+04 p/s/cm^2/sr. The “kidney* Avg Radiance” value (female Balb/c mice) was 8.4 E+04 p/s/cm^2/sr, the “liver* Avg Radiance” value (female Balb/c mice) was 16.61 E+06 p/s/cm^2/sr and the “lung* Avg Radiance” value (female Balb/c mice) was 7.67 E+04 p/s/cm^2/sr. For the same molecule, the “spleen* Avg Radiance” value (female Balb/c mice) was 2.24 E+06 p/s/cm^2/sr, the “Encapsulation Efficiency” value [1] was 87.71% and the polydispersity [2] was 0.025. The “size (nm)” value [2] was 83.81 nm and the “Apparant Pka” value [3] was 6.863.

With `CCCCC/C=C\C/C=C\CCCCCCCC(=O)OCC(COC(=O)CCC(OCCCCCCCC)OCCCCCCCC)COC(=O)OCCCN(CCO)C1CCCCC1` (stereo not drawn) [Compound 126] the “bone marrow* Avg Radiance” value (female Balb/c mice) was −1.44 E+04 p/s/cm^2/sr, the “brain* Avg Radiance” value (female Balb/c mice) was 10.48 E+04 p/s/cm^2/sr and the “heart* Avg Radiance” value (female Balb/c mice) was 23.71 E+04 p/s/cm^2/sr. The “kidney* Avg Radiance” value (female Balb/c mice) was 29.29 E+04 p/s/cm^2/sr, the “liver* Avg Radiance” value (female Balb/c mice) was 54.3 E+06 p/s/cm^2/sr and the “lung* Avg Radiance” value (female Balb/c mice) was 15.58 E+04 p/s/cm^2/sr. The “spleen* Avg Radiance” value (female Balb/c mice) was 0.73 E+06 p/s/cm^2/sr, the “Encapsulation Efficiency” value [1] was 91.87% and the polydispersity [2] was 0.039. The “size (nm)” value [2] was 71.38 nm and the “Apparant Pka” value [3] was 6.154.

In the case of `CCCCC/C=C\C/C=C\CCCCCCCC(=O)OCC(COC(=O)CCCC(COC(=O)CCCCCCC)COC(=O)CCCCCCC)COC(=O)OCCCN(CCOCCO)C1CCC1` (stereo not drawn) [Compound 127], the “luciferase expression” value (female Balb/c mice) is reported as “mild expression”, the “bone marrow* Avg Radiance” value (female Balb/c mice) is reported as 0.95 E+04 p/s/cm^2/sr and the “brain* Avg Radiance” value (female Balb/c mice) is reported as 3.91 E+04 p/s/cm^2/sr. For the same molecule, the “heart* Avg Radiance” value (female Balb/c mice) was 4.33 E+04 p/s/cm^2/sr, the “kidney* Avg Radiance” value (female Balb/c mice) was 10.77 E+04 p/s/cm^2/sr and the “liver* Avg Radiance” value (female Balb/c mice) was 13.01 E+06 p/s/cm^2/sr. The “lung* Avg Radiance” value (female Balb/c mice) was 9.38 E+04 p/s/cm^2/sr, the “spleen* Avg Radiance” value (female Balb/c mice) was 4.76 E+06 p/s/cm^2/sr and the “Encapsulation Efficiency” value [1] was 85.39%. For the same molecule, the polydispersity [2] was 0.037, the “size (nm)” value [2] was 87.99 nm and the “Apparant Pka” value [3] was 6.398.

With `CCCCC/C=C\C/C=C\CCCCCCCC(=O)OCC(COC(=O)CCCCN(CCCCCCCO)C1CCC1)COC(=O)CCCC(COC(=O)CCCCCCC)COC(=O)CCCCCCC` (stereo not drawn) [Compound 129] the “luciferase expression” value (female Balb/c mice) was “mild expression”, the “bone marrow* Avg Radiance” value (female Balb/c mice) was 2.12 E+04 p/s/cm^2/sr and the “brain* Avg Radiance” value (female Balb/c mice) was 12.49 E+04 p/s/cm^2/sr. The “heart* Avg Radiance” value (female Balb/c mice) was 13.05 E+04 p/s/cm^2/sr, the “kidney* Avg Radiance” value (female Balb/c mice) was 17.53 E+04 p/s/cm^2/sr and the “liver* Avg Radiance” value (female Balb/c mice) was 30.05 E+06 p/s/cm^2/sr. For the same molecule, the “lung* Avg Radiance” value (female Balb/c mice) was 11 E+04 p/s/cm^2/sr, the “spleen* Avg Radiance” value (female Balb/c mice) was 6.57 E+06 p/s/cm^2/sr and the “Encapsulation Efficiency” value [1] was 87.05%. For the same molecule, the polydispersity [2] was 0.033, the “size (nm)” value [2] was 138.5 nm and the “Apparant Pka” value [3] was 6.477.
